US5399711A, “Thiomarinol compounds” (Sankyo Company, Limited, priority 1992, dated 1995)
≈ marks a conversion by molar mass, not a printed value.

Tests used:
Enterobacter cloacae 963 = assay: MIC, agar medium dilution method (Test Example 1); format: cell-based; details: nutrient agar
Description: (§1) The minimum inhibitory concentration (MIC) of thiomarinol, thiomarinol B, thiomarinol C and pseudomonic acid A (identified as "A", "B", "C" and "P", respectively) given as μg/ml, against gram-positive and gram-negative bacteria was determined by the agar medium dilution method, using a nutrient agar medium (Product of Eiken Chemical Co., Ltd.).

[1] = system: Enterococcus faecalis 681; assay: MIC, agar medium dilution method (Test Example 1); format: cell-based; details: nutrient agar
Description: as §1

Escherichia coli 609 = assay: MIC, agar medium dilution method (Test Example 1); format: cell-based; details: nutrient agar
Description: as §1

Escherichia coli NIHJ = assay: MIC, agar medium dilution method (Test Example 1); format: cell-based; details: nutrient agar
Description: as §1

[2] = system: Klebsiella pneumoniae 806; assay: MIC, agar medium dilution method (Test Example 1); format: cell-based; details: nutrient agar
Description: as §1

[3] = system: Klebsiella pneumoniae 846 (R); assay: MIC, agar medium dilution method (Test Example 1); format: cell-based; details: nutrient agar
Description: as §1

[4] = system: Morcranella morganii 1510; assay: MIC, agar medium dilution method (Test Example 1); format: cell-based; details: nutrient agar
Description: as §1

Proteus vulgaris 1420 = assay: MIC, agar medium dilution method (Test Example 1); format: cell-based; details: nutrient agar
Description: as §1

[5] = system: Pseudomonas aerucrinosa 1001; assay: MIC, agar medium dilution method (Test Example 1); format: cell-based; details: nutrient agar
Description: as §1

[6] = system: Pseudomonas aerucrinosa No. 7; assay: MIC, agar medium dilution method (Test Example 1); format: cell-based; details: nutrient agar
Description: as §1

[7] = system: Pseudomonas aeruginosa 3719; assay: MIC, agar medium dilution method (Test Example 1); format: cell-based; details: nutrient agar
Description: as §1

Salmonella enteritidis = assay: MIC, agar medium dilution method (Test Example 1); format: cell-based; details: Salmonella enterica, nutrient agar
Description: as §1

Serratia marcescens 1184 = assay: MIC, agar medium dilution method (Test Example 1); format: cell-based; details: nutrient agar
Description: as §1

[8] = system: Staphylococcus aureus 209P; assay: MIC, agar medium dilution method (Test Example 1); format: cell-based; details: nutrient agar
Description: as §1

[9] = system: Staphylococcus aureus 535 (MRSA); assay: MIC, agar medium dilution method (Test Example 1); format: cell-based; details: nutrient agar
Description: as §1

[10] = system: Staphylococcus aureus 56R; assay: MIC, agar medium dilution method (Test Example 1); format: cell-based; details: nutrient agar
Description: as §1

[11] = system: Mycoplasma hyorhinis BTS 7; assay: Antimycoplasmal MIC (Test Example 2); format: cell-based; details: BTS7, 120 h, Chanock medium, 20% horse serum, 0.005 ml of 10^5 CFU/ml, 37° C., 5 days
Description: (§2) Following the same procedure as for Test Example 1, the activity of thiomarinol, thiomarinol B, thiomarinol C and pseudomonic acid A (identified as "A", "B", "C" and "P", respectively) was assayed against various species of mycoplasma. Inoculum: 0.005 ml of 10^5 CFU/ml Thiomarinol B, Thiomarinol C and Pseudomonic acid A were all assayed on Chanock medium [prepared as described in P.N.A.S., 48, 41-49 (1962) and supplemented with 20% horse serum] for all microorganisms; Culture conditions: 37° C., 5 days, slightly aerobic (BBL gas pack method [cultivation in disposable CO2 generator from Becton Dickinson Microbiology Systems, Cockeysville, Md. 2103 U.S.A.])

bacteria = details: compared with the thiomarinol derivatives or with pseudomonic acid; cited from earlier work
tumor = details: Japanese Patent Kokai Application Number Sho 63-27484; cited from earlier work
[12] = system: Mycoplasma hyosynoviae S-16; assay: Antimycoplasmal MIC (Test Example 2); format: cell-based; details: S16, 120 h, Mucin PPLO agar medium, 15% horse serum, 0.005 ml of 10^5 CFU/ml, 37° C., 5 days
Description: as §2, with “microorganisms; Thiomarinol was assayed on the following media: M. hyosynoviae: Mucin PPLO* agar medium (15% horse serum supplemented) |*PPLO ( -- Pleuro -- Pneumonia- -- Like -- Organism) |PPLO Broth without CV (Difco) | 21 g |Mucin bacteriological (Difco) | 5 g |Distilled water 800 ml |Agar Noble (Difco) 12 g |Equine serum 150 ml |25% Fresh yeast extract | 50 ml” for “microorganisms;”

[13] = system: gram-positive and gram-negative bacteria; assay: Antibacterial activity, overall comparison; format: cell-based; details: for antibacterial activity compared with pseudomonic acid A: general statement
Description: as §1

Solubility = format: physicochemical; details: for solubility (insoluble in): hexane and water; for solubility (soluble in): organic solvents
mycoplasma = assay: Anti-mycoplasmal activity, overall comparison; format: cell-based; details: compared with thiomarinol and pseudomonic acid A; Table 2
Description: Following the same procedure as for Test Example 1, the activity of thiomarinol, thiomarinol B, thiomarinol C and pseudomonic acid A (identified as "A", "B", "C" and "P", respectively) was assayed against various species of mycoplasma.

| Compound | MIC (Enterobacter cloacae 963) [µg/mL] | MIC [1] [µg/mL] | MIC (Escherichia coli 609) [µg/mL] | MIC (Escherichia coli NIHJ) [µg/mL] | MIC [2] [µg/mL] | MIC [3] [µg/mL] | MIC [4] [µg/mL] | MIC (Proteus vulgaris 1420) [µg/mL] | MIC [5] [µg/mL] | MIC [6] [µg/mL] | MIC (Salmonella enteritidis) [µg/mL] | MIC (Serratia marcescens 1184) [µg/mL] | MIC [8] [µg/mL] | MIC [9] [µg/mL] | MIC [10] [µg/mL] | antibacterial activity of prior art compounds (bacteria) | also measured |
| --- | --- | --- | --- | --- | --- | --- | --- | --- | --- | --- | --- | --- | --- | --- | --- | --- | --- |
| CC(=CC(=O)OCCCCCCCCC(=O)O)CC1OCC(CC2OC2C(C)C(C)O)C(O)C1O (stereo not drawn) [pseudomonic acid A] | > 100 | 25 (≈ 49.9 µM) | 100 (≈ 200 µM) | 100 (≈ 200 µM) | 100 (≈ 200 µM) | 100 (≈ 200 µM) | > 100 | 0.4 (≈ 0.799 µM) | > 100 | > 100 | 50 (≈ 99.9 µM) | > 100 | 0.05 (≈ 0.0999 µM) | 0.2 (≈ 0.399 µM) | 0.1 (≈ 0.2 µM) | weaker antibacterial activities than do the thiomarinol derivatives of the present invention | MIC [7]: > 100 µg/mL; MIC [11]: 0.39 µg/mL (≈ 0.779 µM) |
| O=C1CCC(=O)N(O)CCCCCNC(=O)CCC(=O)N(O)CCCCCN1 [bisucaberin] |  |  |  |  |  |  |  |  |  |  |  |  |  |  |  |  | antitumor activity (tumor): exhibit antitumor activity |
| C/C(=C\C(=O)OCCCCCCCC(=O)Nc1c2sscc-2[nH]c1=O)C(O)C1OCC(C/C=C/C(C)C(C)O)C(O)C1O (stereo not drawn) [thiomarinol] | 1.5 (≈ 2.34 µM) | 0.02 (≈ 0.0312 µM) | 0.8 (≈ 1.25 µM) | 0.8 (≈ 1.25 µM) | 0.8 (≈ 1.25 µM) | 0.2 (≈ 0.312 µM) | 6.2 (≈ 9.68 µM) | 0.05 (≈ 0.078 µM) | 0.2 (≈ 0.312 µM) | 0.4 (≈ 0.624 µM) | 0.4 (≈ 0.624 µM) | 3.1 (≈ 4.84 µM) | ≤ 0.01 | ≤ 0.01 | ≤ 0.01 |  | MIC [12]: 0.025 µg/mL (≈ 0.039 µM); antibacterial activity compared with pseudomonic acid A [13]: significantly more potent antibacterial activity than does pseudomonic acid A; solubility (insoluble in) (Solubility): insoluble in hexane and water; solubility (soluble in) (Solubility): Soluble in alcohols such as methanol, ethanol, propanol and butanol; and soluble in dimethyl sulfoxide, dimethylformamide, chloroform, ethyl acetate, acetone and diethyl ether |
| CC(=CC(=O)OCCCCC=CCCC(=O)O)CC1OCC(CC2OC2C(C)C(C)O)C(O)C1O (stereo not drawn) [pseudomonic acid D] |  |  |  |  |  |  |  |  |  |  |  |  |  |  |  | weaker antibacterial activities than do the thiomarinol derivatives of the present invention |  |
| C/C(=C\C(=O)OCCCCCCCC(=O)Nc1c2sscc-2[nH]c1=O)CC1OCC(C/C=C/C(C)C(C)O)C(O)C1O (stereo not drawn) [thiomarinol C] | 3.1 (≈ 4.96 µM) | 0.8 (≈ 1.28 µM) | 1.5 (≈ 2.4 µM) | 3.1 (≈ 4.96 µM) | 1.5 (≈ 2.4 µM) | 0.8 (≈ 1.28 µM) | 12.5 (≈ 20 µM) | 0.2 (≈ 0.32 µM) | 0.8 (≈ 1.28 µM) | 0.8 (≈ 1.28 µM) | 1.5 (≈ 2.4 µM) | 6.2 (≈ 9.92 µM) | ≤ 0.01 | ≤ 0.01 | ≤ 0.01 |  | MIC [7]: 0.4 µg/mL (≈ 0.64 µM); MIC [11]: 1.56 µg/mL (≈ 2.5 µM); antibacterial activity ([13]; compared with thiomarinol and pseudomonic acid A, Table 1): at least as good as those of thiomarinol and are, in general, significantly better than those of pseudomonic acid A; antibacterial activity compared with pseudomonic acid A [13]: significantly more potent antibacterial activity than does pseudomonic acid A; anti-mycoplasmal activity (mycoplasma): at least as good as those of thiomarinol and are, in general, significantly better than those of pseudomonic acid A; solubility (insoluble in) (Solubility): Insoluble in hexane and water; solubility (soluble in) (Solubility): Soluble in alcohols such as methanol, ethanol, propanol and butanol, as well as in dimethyl sulfoxide, dimethylformamide, chloroform, ethyl acetate, acetone and diethyl ether |
| CC(=CC(=O)OCCCCCCCCC(=O)O)CC1OCC(CC=CC(C)C(C)O)C(O)C1O (stereo not drawn) [pseudomonic acid C] |  |  |  |  |  |  |  |  |  |  |  |  |  |  |  | weaker antibacterial activities than do the thiomarinol derivatives of the present invention |  |
| C/C(=C\C(=O)OCCCCCCCCC(=O)O)C[C@@H]1OC[C@](O)(C[C@@H]2O[C@H]2[C@@H](C)[C@H](C)O)[C@@H](O)[C@H]1O [pseudomonic acid B] |  |  |  |  |  |  |  |  |  |  |  |  |  |  |  | weaker antibacterial activities than do the thiomarinol derivatives of the present invention |  |
